Each block holds one compound with its values, some of them ahead of it.
What was measured:
[1] = 12-week randomized, double-blind add-on to metformin study in inadequately controlled adult type 2 diabetic patients: HbA1c and FPG; details: for placebo corrected mean reduction in HbA1c: 12 weeks
Description: Effects were compared to add-on of placebo (PBO) or of open label glimepiride (GLIM; 1 to 3 mg qd) in a 12-week randomized, double-blind study.
The primary endpoint was change from baseline in HbA1c, adjusted for prior antidiabetic medication.

[2] = Safety (adverse events, hypoglycaemia) in the 12-week add-on to metformin study; format: in vivo, human; details: 12 weeks
Description: In total, 106 patients (43.1%) experienced adverse events (AEs) with similar incidences across all treatments. Most frequently reported episodes were nasopharyngitis (7.5%), diarrhoea (3.3%), and nausea (3.0%). […] Ten patients (3.7%) experienced serious AEs but none of these events were considered drug-related.
The addition of BI 1356 to MET in patients with T2DM inadequately controlled on MET alone achieved clinically relevant and statistically significant reductions in HbA1c.

[3] = Pharmacokinetics of BI 1356, multiple oral doses once daily for 12 days in adult patients with type 2 diabetes; details: for fe0-24: fraction excreted in urine; for AUCT,ss / T1/2,ss / feT,ss / tmax,ss* / Cmax: steady state (Day 12); for tmax,ss*: median; for Cmax: read-out: Cmax,ss
[4] = Plasma concentration after single oral administration in the thorough QT study; format: in vivo, human; details: for maximum gMean concentration after single oral administration: healthy subjects
Description: Forty-four subjects were enrolled, 26 (59.1%) of whom were male. The mean age was 36.4 years (range 22 to 48 years). The maximum gMean concentration after single oral administration was 7.05 nM (28.5% gCV) for 5 mg BI 1356, and 267 nM (66.6% gCV) for 100 mg BI 1356.

[5] = Safety and tolerability in people with type 2 diabetes
[6] = 2 h postprandial blood glucose excursions, multiple oral dose study in adult patients with type 2 diabetes; format: in vivo, human; details: already on Day 1; in doses 2.5 mg
Description: […]. […] […].

clinical = details: human; for Cmax / Tmax / AUC(0-t): plasma; for CL renal: urine
[7] = gMean, 1 mg once daily oral for 12 days
[8] = gMean, 2.5 mg once daily oral for 12 days
[9] = gMean, 5 mg once daily oral for 12 days
[10] = gMean, 10 mg once daily oral for 12 days

SMILES: CCC1=C(C)CN(C(=O)NCCc2ccc(S(=O)(=O)NC(=O)N[C@H]3CC[C@H](C)CC3)cc2)C1=O [GLIM, glimepiride, reference compound]
mean PBO corrected reduction in HbA1c at Week 12 ([1]; open label, 1 to 3 mg qd add-on to metformin, n=64): −0.90%
drug-related hypoglycaemia ([2]; add-on to metformin): 3 patients

excretion via the kidney (therapeutic oral dose levels): < 7 % of the administered oral dose
main excretion organ (therapeutic oral dose levels): mainly excreted via the liver
mean accumulation ratio RA,AUC ([3]; doses above 1 mg, once daily for 12 days): ≤ 1.4
AUC0-24 [3, 7]: 0.0402 µM·h
Accumulation t1/2, [3, 7]: 23.9 h
Accumulation t1/2, [3, 8]: 12.5 h
Accumulation t1/2, [3, 9]: 11.4 h
Accumulation t1/2, [3, 10]: 8.59 h
fe0-24 [3, 8]: 0.139%
fe0-24 [3, 9]: 0.453%
fe0-24 [3, 10]: 0.919%
AUCT,ss ([3]; gMean, 1 mg once daily oral): 0.0817 µM·h
T1/2,ss ([3]; gMean, 1 mg once daily oral): 121 h
feT,ss ([3]; gMean, 1 mg once daily oral): 3.34%
AUCT,ss ([3]; gMean, 2.5 mg once daily oral): 0.117 µM·h
T1/2,ss ([3]; gMean, 2.5 mg once daily oral): 113 h
feT,ss ([3]; gMean, 2.5 mg once daily oral): 3.06%
AUCT,ss ([3]; gMean, 5 mg once daily oral): 0.158 µM·h
T1/2,ss ([3]; gMean, 5 mg once daily oral): 131 h
feT,ss ([3]; gMean, 5 mg once daily oral): 6.27%
AUCT,ss ([3]; gMean, 10 mg once daily oral): 0.19 µM·h
T1/2,ss ([3]; gMean, 10 mg once daily oral): 130 h
feT,ss ([3]; gMean, 10 mg once daily oral): 3.22%
tmax,ss* ([3]; 1 mg once daily oral): 1.48 h
tmax,ss* ([3]; 2.5 mg once daily oral): 1.42 h
tmax,ss* ([3]; 5 mg once daily oral): 1.53 h
tmax,ss* ([3]; 10 mg once daily oral): 1.34 h
Cmax ([3]; gMean, 1 mg once daily oral): 4.53 nM
Cmax ([3]; gMean, 2.5 mg once daily oral): 6.58 nM
Cmax ([3]; gMean, 5 mg once daily oral): 11.1 nM
Cmax ([3]; gMean, 10 mg once daily oral): 13.6 nM
Cmax (clinical; po, 1 mg): 3.13 nM
Tmax (clinical; po, 1 mg): 1.5 h
AUC(0-t) (clinical; po, 2.5 mg): 0.0853 µM·h
Cmax (clinical; po, 2.5 mg): 5.25 nM
Tmax (clinical; po, 2.5 mg): 2 h
AUC(0-t) (clinical; po, 5 mg): 0.118 µM·h
Cmax (clinical; po, 5 mg): 8.32 nM
Tmax (clinical; po, 5 mg): 1.75 h
AUC(0-t) (clinical; po, 10 mg): 0.161 µM·h
Cmax (clinical; po, 10 mg): 9.69 nM
Tmax (clinical; po, 10 mg): 2 h
CL renal (clinical; oral, 5 mg): ~70 mL/min
CL renal (clinical; po): 14 to 70 mL/min
SMILES: CC#CCn1c(N2CCC[C@@H](N)C2)nc2c1c(=O)n(Cc1nc(C)c3ccccc3n1)c(=O)n2C [BI 1356]
excretion form and pathway (in vivo): primarily excreted unchanged via the bile
maximum gMean concentration after single oral administration ([4]; 5 mg single oral dose): 7.05 nM
maximum gMean concentration after single oral administration ([4]; 100 mg single oral dose): 267 nM
maximum plasma concentration of supratherapeutic dose (100 mg) relative to therapeutic dose of 5 mg ([4]; single dose): about 38 fold
reduction in FPG from baseline to Week 12 ([1]; 1 mg qd add-on to metformin): -19 mg/dL
placebo corrected mean reduction in HbA1c ([1]; 1 mg qd add-on to metformin, n=65): −0.39%
reduction in FPG from baseline to Week 12 ([1]; 5 mg qd add-on to metformin): -35 mg/dL
placebo corrected mean reduction in HbA1c ([1]; 5 mg qd add-on to metformin, n=66): −0.75%
reduction in FPG from baseline to Week 12 ([1]; 10 mg qd add-on to metformin): -30 mg/dL
placebo corrected mean reduction in HbA1c ([1]; 10 mg qd add-on to metformin, n=66): −0.73%
safety and tolerability [5]: placebo-like safety and tolerability
decrease in 2 h postprandial blood glucose excursions [6]: > 80%
drug-related hypoglycaemia ([2]; add-on to metformin): did not occur
incidence of AEs versus PBO ([2]; add-on to metformin): comparable
tolerability of combination treatment with MET ([2]; BI 1356 1, 5, and 10 mg and MET): well tolerated
